Data taken from US20170128519A1, “CASPASE INHIBITORS FOR THE TREATMENT OF COLORECTAL CANCER” (Conatus Pharmaceuticals, Inc., priority 2015, published 2017).

System: HT-29 cells
Experiment: crystal violet assay of adherent HT-29 cells after 5-FU treatment
Format: cell-based, human
Protocol: 5-Fluoruracil (5-FU) was from Sigma Aldrich, Necrostatin-1 was from Enzo Life Sciences. HAT-29 human CRC cell line was obtained from ATCC after cell line authentication utilizing short tandem repeat (STR) profiling. Within four weeks all cell lines were expanded and frozen in aliquots. Cell lines were reauthenticated and regularly tested for contamination as provided by the German Cancer Research Center (DKFZ) Core Facility (Heidelberg). Cells were cultured in RPMI-1640 medium (Biochrom) containing 10% FCS (PAA Laboratories) and 1% penicillin/streptomycin at 5% CO2 and 37° C.
HT-29 cells were incubated with 20 μM IDN-7314 and/or 20 μM Necrostatin (N) for 2 hours prior to treatment with 5-Fluoruracil (5-FU, 50 or 100 mg/ml). After 48 hours, the number of adherent cells was determined via crystal violet assay (RLU=relative light units). […] This effect could be abolished by the RIP1-specific kinase inhibitor, necrostatin, the reduced number of cells is due to induction of necrotic cell death.

SMILES	effect of necrostatin on the reduction of adherent cells by IDN-7314 co-treatment (20 μM Necrostatin with 20 μM IDN-7314 for 2 hours prior to 5-FU (50 or 100 mg/ml), 48 hours)	number of adherent cells (crystal violet assay, RLU) (20 μM IDN-7314 for 2 hours prior to 5-FU (50 or 100 mg/ml), read after 48 hours)	sensitization of colon cancer cells to chemotherapy-induced necrotic cell death (FIG. 1) (IDN-7314 with 5-FU)
CN1C(=O)C(Cc2c[nH]c3ccccc23)NC1=S (stereo not drawn) [necrostatin, Necrostatin-1, reference compound]	abolished		
C[C@H](NC(=O)C(=O)Nc1c(F)cccc1F)C(=O)N[C@@H](CC(=O)O)C(=O)COc1c(F)c(F)cc(F)c1F [IDN-7314]		significantly reduced the number of adherent cells	sensitizes colon cancer cells to chemotherapy-induced necrotic cell death
